Assays:
Assay in all cases: relative viability (nuclei count vs DMSO), 5 days (fraction); higher = more cells survive
A-427 = system: A-427
How it was run: (§1)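 Relative viability divides the nuclei count in treated wells by that in vehicle wells. Lung cancer cell lines were seeded in 1536-well plates, dosed by pin tool the next day, and fixed and stained after 5 days in one step with final 0.05% Triton X-100, 1% formaldehyde and 1 ug/ml Hoechst. Dosing was a single drug or a fixed anchor-drug dose plus five library-drug doses (not always all listed) in √10 steps, and values are medians of duplicate plates imaged at 4×.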

BEN = system: BEN
How it was run: as §1

CAL-12T = system: CAL-12T
How it was run: as §1

COR-L 105 = system: COR-L 105
How it was run: as §1

ChaGo-K-1 = system: ChaGo-K-1
How it was run: as §1

EPLC-272H = system: EPLC-272H
How it was run: as §1

HOP-62 = system: HOP-62
How it was run: as §1

LCLC-103H = system: LCLC-103H
How it was run: as §1

LU99A = system: LU99A
How it was run: as §1

LXF-289 = system: LXF-289
How it was run: as §1

NCI-H1395 = system: NCI-H1395
How it was run: as §1

NCI-H1650 = system: NCI-H1650
How it was run: as §1

NCI-H1666 = system: NCI-H1666
How it was run: as §1

NCI-H1793 = system: NCI-H1793
How it was run: as §1

NCI-H1975 = system: NCI-H1975
How it was run: as §1

NCI-H1993 = system: NCI-H1993
How it was run: as §1

NCI-H2009 = system: NCI-H2009
How it was run: as §1

NCI-H2342 = system: NCI-H2342
How it was run: as §1

NCI-H2347 = system: NCI-H2347
How it was run: as §1

NCI-H358 = system: NCI-H358
How it was run: as §1

NCI-H441 = system: NCI-H441
How it was run: as §1

NCI-H460 = system: NCI-H460
How it was run: as §1

NCI-H650 = system: NCI-H650
How it was run: as §1

NCI-H727 = system: NCI-H727
How it was run: as §1

SK-MES-1 = system: SK-MES-1
How it was run: as §1

Question: `Nc1cccc2c1CN(C1CCC(=O)NC1=O)C2=O` (stereo unspecified) [Lenalidomide] + O=C(c1cc(Cc2n[nH]c(=O)c3ccccc23)ccc1F)N1CCN(C(=O)C2CC2)CC1 [Olaparib] (partner 8 µM) was tested. Which relative viability (A-427; first compound 0.253 µM) did it give?
Answer: 0.713

Question: What about the relative viability (A-427; first compound 0.8 µM) of the same molecule?
Answer: 0.504

Question: What about the relative viability (A-427; first compound 2.53 µM) of the same molecule?
Answer: 0.838

Question: And the relative viability (A-427; first compound 8 µM)?
Answer: 0.79

Question: And the relative viability (BEN; first compound 0.253 µM)?
Answer: 1.07

Question: What about the relative viability (BEN; first compound 0.8 µM) of the same molecule?
Answer: 1.2

Question: And the relative viability (BEN; first compound 2.53 µM)?
Answer: 1.08

Question: And the relative viability (BEN; first compound 8 µM)?
Answer: 1.08

Question: And the relative viability (CAL-12T; first compound 0.253 µM)?
Answer: 0.807

Question: What about the relative viability (CAL-12T; first compound 0.8 µM) of the same molecule?
Answer: 0.729

Question: And the relative viability (CAL-12T; first compound 2.53 µM)?
Answer: 0.757

Question: And the relative viability (CAL-12T; first compound 8 µM)?
Answer: 0.941

Question: And the relative viability (COR-L 105; first compound 0.253 µM)?
Answer: 0.737

Question: And the relative viability (COR-L 105; first compound 0.8 µM)?
Answer: 0.712

Question: What about the relative viability (COR-L 105; first compound 2.53 µM) of the same molecule?
Answer: 0.748

Question: What about the relative viability (COR-L 105; first compound 8 µM) of the same molecule?
Answer: 0.774

Question: And the relative viability (ChaGo-K-1; first compound 0.253 µM)?
Answer: 0.387

Question: And the relative viability (ChaGo-K-1; first compound 0.8 µM)?
Answer: 0.407

Question: What about the relative viability (ChaGo-K-1; first compound 2.53 µM) of the same molecule?
Answer: 0.421

Question: And the relative viability (ChaGo-K-1; first compound 8 µM)?
Answer: 0.478

Question: And the relative viability (EPLC-272H; first compound 0.253 µM)?
Answer: 0.777

Question: And the relative viability (EPLC-272H; first compound 2.53 µM)?
Answer: 0.613

Question: And the relative viability (EPLC-272H; first compound 8 µM)?
Answer: 0.657

Question: What about the relative viability (HOP-62; first compound 0.253 µM) of the same molecule?
Answer: 0.38

Question: What about the relative viability (HOP-62; first compound 0.8 µM) of the same molecule?
Answer: 0.366

Question: And the relative viability (HOP-62; first compound 2.53 µM)?
Answer: 0.537

Question: What about the relative viability (HOP-62; first compound 8 µM) of the same molecule?
Answer: 0.406

Question: What about the relative viability (LCLC-103H; first compound 0.253 µM) of the same molecule?
Answer: 0.718

Question: And the relative viability (LCLC-103H; first compound 0.8 µM)?
Answer: 0.667

Question: What about the relative viability (LCLC-103H; first compound 2.53 µM) of the same molecule?
Answer: 0.76

Question: And the relative viability (LCLC-103H; first compound 8 µM)?
Answer: 0.741

Question: What about the relative viability (LU99A; first compound 0.253 µM) of the same molecule?
Answer: 0.261

Question: What about the relative viability (LU99A; first compound 0.8 µM) of the same molecule?
Answer: 0.283

Question: What about the relative viability (LU99A; first compound 2.53 µM) of the same molecule?
Answer: 0.243

Question: What about the relative viability (LU99A; first compound 8 µM) of the same molecule?
Answer: 0.246

Question: What about the relative viability (LXF-289; first compound 0.253 µM) of the same molecule?
Answer: 1.04

Question: What about the relative viability (LXF-289; first compound 0.8 µM) of the same molecule?
Answer: 1.17

Question: And the relative viability (LXF-289; first compound 2.53 µM)?
Answer: 1.24

Question: What about the relative viability (LXF-289; first compound 8 µM) of the same molecule?
Answer: 1.16

Question: What about the relative viability (NCI-H1395; first compound 0.253 µM) of the same molecule?
Answer: 0.453

Question: And the relative viability (NCI-H1395; first compound 2.53 µM)?
Answer: 0.523

Question: And the relative viability (NCI-H1395; first compound 8 µM)?
Answer: 0.458

Question: And the relative viability (NCI-H1650; first compound 0.253 µM)?
Answer: 0.681

Question: And the relative viability (NCI-H1650; first compound 0.8 µM)?
Answer: 0.712

Question: What about the relative viability (NCI-H1650; first compound 2.53 µM) of the same molecule?
Answer: 0.945

Question: What about the relative viability (NCI-H1650; first compound 8 µM) of the same molecule?
Answer: 0.933

Question: And the relative viability (NCI-H1666; first compound 0.253 µM)?
Answer: 0.781

Question: What about the relative viability (NCI-H1666; first compound 0.8 µM) of the same molecule?
Answer: 0.717

Question: What about the relative viability (NCI-H1666; first compound 2.53 µM) of the same molecule?
Answer: 0.776

Question: And the relative viability (NCI-H1666; first compound 8 µM)?
Answer: 0.759

Question: And the relative viability (NCI-H1793; first compound 0.253 µM)?
Answer: 0.863

Question: What about the relative viability (NCI-H1793; first compound 2.53 µM) of the same molecule?
Answer: 1.07

Question: And the relative viability (NCI-H1793; first compound 8 µM)?
Answer: 0.539

Question: And the relative viability (NCI-H1975; first compound 0.253 µM)?
Answer: 0.912

Question: And the relative viability (NCI-H1975; first compound 0.8 µM)?
Answer: 0.694

Question: What about the relative viability (NCI-H1975; first compound 2.53 µM) of the same molecule?
Answer: 0.876

Question: What about the relative viability (NCI-H1975; first compound 8 µM) of the same molecule?
Answer: 0.995

Question: What about the relative viability (NCI-H1993; first compound 0.253 µM) of the same molecule?
Answer: 0.897

Question: What about the relative viability (NCI-H1993; first compound 0.8 µM) of the same molecule?
Answer: 1.42

Question: And the relative viability (NCI-H1993; first compound 2.53 µM)?
Answer: 1.09

Question: And the relative viability (NCI-H1993; first compound 8 µM)?
Answer: 0.889

Question: And the relative viability (NCI-H2009; first compound 0.253 µM)?
Answer: 0.623

Question: What about the relative viability (NCI-H2009; first compound 0.8 µM) of the same molecule?
Answer: 0.654

Question: And the relative viability (NCI-H2009; first compound 2.53 µM)?
Answer: 0.827

Question: And the relative viability (NCI-H2009; first compound 8 µM)?
Answer: 0.693

Question: What about the relative viability (NCI-H2342; first compound 0.253 µM) of the same molecule?
Answer: 0.464

Question: And the relative viability (NCI-H2342; first compound 0.8 µM)?
Answer: 0.415

Question: What about the relative viability (NCI-H2342; first compound 2.53 µM) of the same molecule?
Answer: 0.437

Question: And the relative viability (NCI-H2342; first compound 8 µM)?
Answer: 0.399

Question: What about the relative viability (NCI-H2347; first compound 0.253 µM) of the same molecule?
Answer: 0.62

Question: What about the relative viability (NCI-H2347; first compound 0.8 µM) of the same molecule?
Answer: 0.567

Question: And the relative viability (NCI-H2347; first compound 2.53 µM)?
Answer: 0.579

Question: What about the relative viability (NCI-H2347; first compound 8 µM) of the same molecule?
Answer: 0.509

Question: What about the relative viability (NCI-H358; first compound 0.8 µM) of the same molecule?
Answer: 0.607

Question: And the relative viability (NCI-H358; first compound 2.53 µM)?
Answer: 0.652

Question: What about the relative viability (NCI-H358; first compound 8 µM) of the same molecule?
Answer: 0.665

Question: What about the relative viability (NCI-H441; first compound 0.253 µM) of the same molecule?
Answer: 0.471

Question: What about the relative viability (NCI-H441; first compound 0.8 µM) of the same molecule?
Answer: 0.502

Question: What about the relative viability (NCI-H441; first compound 2.53 µM) of the same molecule?
Answer: 0.625

Question: What about the relative viability (NCI-H441; first compound 8 µM) of the same molecule?
Answer: 0.577

Question: And the relative viability (NCI-H460; first compound 0.253 µM)?
Answer: 0.394

Question: And the relative viability (NCI-H460; first compound 0.8 µM)?
Answer: 0.397

Question: What about the relative viability (NCI-H460; first compound 2.53 µM) of the same molecule?
Answer: 0.438

Question: And the relative viability (NCI-H460; first compound 8 µM)?
Answer: 0.374

Question: And the relative viability (NCI-H650; first compound 0.253 µM)?
Answer: 0.384

Question: What about the relative viability (NCI-H650; first compound 0.8 µM) of the same molecule?
Answer: 0.294

Question: What about the relative viability (NCI-H650; first compound 2.53 µM) of the same molecule?
Answer: 0.544

Question: And the relative viability (NCI-H650; first compound 8 µM)?
Answer: 0.369

Question: And the relative viability (NCI-H727; first compound 0.253 µM)?
Answer: 0.732

Question: And the relative viability (NCI-H727; first compound 0.8 µM)?
Answer: 0.706

Question: And the relative viability (NCI-H727; first compound 2.53 µM)?
Answer: 0.633

Question: And the relative viability (NCI-H727; first compound 8 µM)?
Answer: 0.7

Question: And the relative viability (SK-MES-1; first compound 0.253 µM)?
Answer: 0.717

Question: And the relative viability (SK-MES-1; first compound 0.8 µM)?
Answer: 0.691

Question: What about the relative viability (SK-MES-1; first compound 2.53 µM) of the same molecule?
Answer: 0.715

Question: What about the relative viability (SK-MES-1; first compound 8 µM) of the same molecule?
Answer: 0.806

Reference: the supplement of paper PMC10307832
